According to patent US7709242B2, “L-tyrosine producing bacterium and a method for producing L-tyrosine” (Ajinomoto Co., Inc., priority 2004, dated 2010):

Key:
[1] = target: T1, wild-type PDH (prephenate dehydrogenase) (Escherichia coli, UniProt P07023); experiment: PDH activity in crude enzyme solution at L-tyrosine concentrations, wild-type PDH; type: biochemical; conditions: in the presence of 100 μM L-tyrosine; strain carrying wild-type PDH
T1 construct: made in house; host or cells: Escherichia coli (crude enzyme solution of sonicated cells)
Source text: Such mutant PDH can be obtained by introducing amino acid substitutions into wild-type PDHs and selecting a PDH which is not subject to feedback inhibition by L-tyrosine due to the amino acid substitution-introduced PDHs. Specifically, nucleotide substitutions causing amino acid substitutions are introduced into a DNA encoding PDH (e.g., SEQ ID NO: 1) by the use of, for example, site-directed mutagenesis using PCR or the like, and an Escherichia bacterium, preferably an Escherichia bacterium in which a wild-type PDH gene is disrupted is transformed with the mutated DNA. The PDH activity of the bacterium is then measured in the presence and absence of L-tyrosine, and a strain in which PDH is resistant to feedback inhibition by L-tyrosine is selected. PDH activity can be measured according to the method described in Biochemistry. 1990 Nov. 6; 29(44): 10245-54.
W3110 ΔtyrR,tyrA/pSTVtyrA-1, -2, -5, -10, and -24 strains were cultured at 37° C. for 15 hours in a LB medium, respectively and each culture solution was centrifuged to collect bacterial cells. […] Then, the PDH activity was measured according to the method described in Biochemistry. […] That is, the enzyme reaction was performed at 30° C. for 10 minutes in 50 mM Tris-HCl (pH 7.5) containing 0.25 mM prephenate, 1 mM EDTA, 1 mM DTT, and 2 mM NAD, and the generated NADH was measured at an absorption wavelength of 340 nm. […]

[2] = target: T2, PDH of W3110 ΔtyrR,tyrA/pSTVtyrA-1 strain (tyrA(mut), P100S/T260I) (Escherichia coli, UniProt P07023, P100S/T260I); experiment: PDH activity in crude enzyme solution at L-tyrosine concentrations, pSTVtyrA-1 strain; type: biochemical; conditions: in the presence of 800 μM L-tyrosine
T2 construct: The resulting mutated fragment was then ligated to pSTV28; made in house; host or cells: Escherichia coli W3110 ΔtyrR,tyrA (endogenous tyrA disrupted), plasmid pSTV28; crude enzyme solution
Method: (§1) W3110 ΔtyrR,tyrA/pSTVtyrA-1, -2, -5, -10, and -24 strains were cultured at 37° C. for 15 hours in a LB medium, respectively and each culture solution was centrifuged to collect bacterial cells. Next, after the bacterial cells were washed twice with 50 mM Tris-HCl (pH 7.5) and suspended in 50 mM Tris-HCl (pH 7.5) containing 20% glycerol on ice, a crude enzyme solution was prepared by repeating 30 second-ultrasonication 80 times. Then, the PDH activity was measured according to the method described in Biochemistry. 1990 Nov. 6; 29(44): 10245-54. That is, the enzyme reaction was performed at 30° C. for 10 minutes in 50 mM Tris-HCl (pH 7.5) containing 0.25 mM prephenate, 1 mM EDTA, 1 mM DTT, and 2 mM NAD, and the generated NADH was measured at an absorption wavelength of 340 nm. A protein assay was carried out by the Bradford method. […] Hereinafter, this tyrA gene inserted into pSTVtyrA-1 is referred to as tyrA(mut).
The nucleotide sequence of the tyrA(mut) gene was determined according to a standard method. In this mutant, proline at position 100 and threonine at position 260 were replaced by serine and isoleucine, respectively. […] The obtained strains were cultured and L-tyrosine production was evaluated. […]

[3] = tested on: PDH of strains carrying pSTVtyrA-2, -5, -10, and -24; experiment: PDH activity in crude enzyme solution at L-tyrosine concentrations, pSTVtyrA-2, -5, -10, -24 strains; type: biochemical, Escherichia coli; conditions: in the presence of 100 μM L-tyrosine
Method: as §1

[4] = target: T3, PDH containing the T260I mutation (Escherichia coli, UniProt P07023, T260I); experiment: PDH activity in crude enzyme solution at tyrosine concentrations, T260I mutant; type: biochemical; conditions: in the presence of 800 μM tyrosine; strain harboring PDH with T260I
T3 construct: EcoRI-CpoI fragment containing no mutation excised from pSTVtyrA(W) was connected to the vector fragment of EcoRI-CpoI-digested pSTVtyrA(mut); made in house; host or cells: Escherichia coli W3110 ΔtyrR,tyrA, plasmid pSTVtyrA(T260I); crude enzyme solution
Method: (§2) A strain containing mutant 7 (257/265), a strain containing mutant 6 (254/269), both shown in Table 3, and a strain containing the T260I mutation shown in Table 2 were cultured at 37° C. for 15 hours in LB medium, and after the culture, the resulting culture was centrifuged to collect bacterial cells. Then, after the bacterial cells were washed twice with 50 mM Tris-HCl (pH 7.5) and suspended in 50 mM Tris-HCl (pH 7.5) containing 20% glycerol on ice, a crude enzyme solution was prepared by repeating 30 second-ultrasonication 80 times. PDH activity was measured according to the method described in Biochemistry. 1990 Nov. 6; 29(44): 10245-54. That is, a reaction was carried out at 30° C. for 10 minutes in 50 mM Tris-HCl (pH 7.5) containing 0.25 mM prephenate, 1 mM EDTA, 1 mM DTT, and 2 mM NAD^+, and NADH was measured at an absorption wavelength of 340 nm. A protein assay was carried out by the Bradford method. […] However, the PDH activity of the strain harboring the PDH with the 257/265 mutation could not be measured even though the L-tyrosine yield was high.

[5] = target: T4, PDH containing the 254/269 mutations (mutant 6, A254G/E269Y) (Escherichia coli, UniProt P07023, A254G/E269Y); experiment: PDH activity in crude enzyme solution at tyrosine concentrations, 254/269 mutant; type: biochemical; conditions: in the presence of 800 μM tyrosine; strain harboring PDH with 254/269 mutations
T4 construct: amplify a full length fragment of the tyrA gene which has mutations introduced; made in house; host or cells: Escherichia coli W3110 ΔtyrR,tyrA, plasmid pSTV28 (SmaI site); crude enzyme solution
Method: as §2

[6] = target: PDH (encoded by the tyrA gene) (Escherichia coli, UniProt P07023); conditions: Biochemistry. 1985 Feb. 26; 24(5): 1116; cited from earlier work
Sequence of PDH (encoded by the tyrA gene) (P07023 whole entry): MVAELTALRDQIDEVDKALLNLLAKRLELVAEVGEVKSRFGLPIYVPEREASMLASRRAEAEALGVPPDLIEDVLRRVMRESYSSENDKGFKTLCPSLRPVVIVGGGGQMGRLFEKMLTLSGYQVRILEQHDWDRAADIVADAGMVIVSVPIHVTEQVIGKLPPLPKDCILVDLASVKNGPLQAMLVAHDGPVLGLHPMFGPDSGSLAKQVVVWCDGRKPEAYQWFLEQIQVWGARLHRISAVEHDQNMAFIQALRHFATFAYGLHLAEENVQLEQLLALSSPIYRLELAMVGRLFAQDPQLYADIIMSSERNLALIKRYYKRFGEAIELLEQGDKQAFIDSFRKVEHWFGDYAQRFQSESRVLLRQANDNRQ

T2 sequence (P07023 whole entry P100S/T260I, the tested form may be a part): as the sequence (P07023 whole entry) above, with P100S, T260I counted along it
T1 sequence (P07023 whole entry): as the sequence (P07023 whole entry) above
T3 sequence (P07023 whole entry T260I, the tested form may be a part): as the sequence (P07023 whole entry) above, with T260I counted along it
T4 sequence (P07023 whole entry A254G/E269Y, the tested form may be a part): as the sequence (P07023 whole entry) above, with A254G, E269Y counted along it

SMILES: N[C@@H](Cc1ccc(O)cc1)C(=O)O [L-tyrosine]
- inhibition of PDH activity [1]: strongly inhibited
- inhibition of PDH activity [2]: almost no inhibition
- inhibition of PDH activity [3]: strongly inhibited
- inhibition of PDH activity [4]: almost no inhibition
- inhibition of PDH activity [5]: almost no inhibition
- concentration of L-tyrosine at which PDH is inhibited (as low as) [6]: 300 µM
